Results reported in patent US20250368626A1, “SOLID FORMS OF 2-(3,5-DICHLORO-4-((5-ISOPROPYL-6-OXO-1,6-DIHYDROPYRIDAZIN-3-YL)OXY)PHENYL)-3,5-DIOXO-2,3,4,5-TETRAHYDRO-1,2,4-TRIAZINE-6-CARBONITRILE” (Madrigal Pharmaceuticals, Inc., priority 2018, published 2025).
In brackets after ≈: the same amount, converted by molar mass.

Columns and labels:
[1] = Solubility of salts of Compound A in FaSSGF, FaSSIF and water at 37° C.; details: for Solubility: 37° C.
[2] = Kinetic and thermodynamic solubility of Compound A and the glutaric acid co-crystal in FaSSGF, FaSSIF and water at 37° C. (HPLC); assay type: physicochemical; details: for Solubility / solubility at 1 h / solubility at 24 h: 37° C.; for pH: pH of the slurry; for XRPD after slurry: solid form after slurry
Experimental: The kinetic and thermodynamic solubility of the glutaric acid co-crystal was assessed in simulated fasted state gastric and intestinal fluids (FaSSGF and FaSSIF) and also in water. The pH of the system was also measured. The solubility assessment was also performed on Compound A for comparison. […] Samples were collected after 24 hours for equilibrium solubility measurement.

[3] = Dynamic vapor sorption (DVS) of the glutaric acid co-crystal; assay type: physicochemical
Description: FIG. 83 is a dynamic vapor sorption (DVS) isotherm of the glutaric acid co-crystal of Compound A showing a total mass gain of 1.12% by weight between 2% and 95% relative humidity environments.
No difference in the XRPD pattern was seen after the DVS analysis, the XRPD patterns before and after DVS analysis are shown in FIG. 84.

[4] = Stability of the co-crystal at 75% RH at 40° C. for 1 week; assay type: physicochemical
[5] = Physical form stability of scaled-up salts at 75% relative humidity for 1 week; assay type: physicochemical
[6] = Water, value of the 100X dil sample
[7] = solid after solubility test in FaSSGF, by XRPD

In the case of `CC(C)c1cc(Oc2c(Cl)cc(-n3nc(C#N)c(=O)[nH]c3=O)cc2Cl)n[nH]c1=O.O.O` [Free form dihydrate], the “Solubility” value ([1]; FaSSGF) is reported as 6.7 µg/mL, the “Solubility” value ([1]; FaSSIF) is reported as 2900 µg/mL and the “Solubility” value ([1]; Water) is reported as 100 µg/mL.

In the case of `CC(C)c1cc(Oc2c(Cl)cc(-n3nc(C#N)c(=O)[nH]c3=O)cc2Cl)n[nH]c1=O.O=C(O)CCCC(=O)O` [Glutaric acid co-crystal], the “Solubility” value ([2]; FaSSGF, Equilibrium-24 hours) is reported as 1 µg/mL, the “Solubility” value ([2]; FaSSGF, Kinetic-1 hour) is reported as 0.1 µg/mL and the “Solubility” value ([2]; FaSSIF, Equilibrium-24 hours) is reported as 478.1 µg/mL. For the same molecule, the “Solubility” value ([2]; FaSSIF, Kinetic-1 hour) was 239.9 µg/mL, the “Solubility” value ([2]; Water, Equilibrium-24 hours) was 1.6 µg/mL and the “Solubility” value ([2]; Water, Kinetic-1 hour) was 0.3 µg/mL. For the same molecule, the pH ([2]; FaSSGF, Equilibrium-24 hours) was 1.66, the pH ([2]; FaSSIF, Equilibrium-24 hours) was 6.31 and the pH ([2]; Water, Equilibrium-24 hours) was 4.27. For the same molecule, the XRPD after slurry ([2]; FaSSGF, Equilibrium-24 hours) was “Dihydrate”, the XRPD after slurry ([2]; FaSSIF, Equilibrium-24 hours) was “Dihydrate” and the XRPD after slurry ([2]; Water, Equilibrium-24 hours) was “Dihydrate”. For the same molecule, the hygroscopicity ([3]; DVS, 2% to 95% RH) was “not hygroscopic”, the “mass gain (DVS)” value ([3]; between 2% and 95% relative humidity, by weight) was 1.12% and the “XRPD pattern after DVS analysis compared with the starting material” value ([3]; listed as co-crystal) was “No difference”. For the same molecule, the “XRPD pattern after DVS analysis compared with the starting material” value ([3]; listed as glutaric acid co-crystal) was “no change was observed” and the stability [4] was “stable”.

Molecule `CC(C)c1cc(Oc2c(Cl)cc(-n3nc(C#N)c(=O)[nH]c3=O)cc2Cl)n[nH]c1=O` [Form A, 2-(3,5-dichloro-4-((5-isopropyl-6-oxo-1,6-dihydropyridazin-3-yl)oxy)phenyl)-3,5-dioxo-2,3,4,5-tetrahydro-1,2,4-triazine-6-carbonitrile] has a solubility at 1 h ([2]; fassgf or other biorelevant, thermodynamic from solid, FaSSGF, Kinetic-1 hour) of 1.1 µg/mL (≈ 2.53 µM), a solubility at 24 h ([2]; pH 1.67, fassgf or other biorelevant, thermodynamic from solid, FaSSGF, Equilibrium-24 hours) of 1.1 µg/mL (≈ 2.53 µM) and a solubility at 24 h ([2]; pH 6.44, thermodynamic from solid, FaSSIF, Equilibrium-24 hours) of 552 µg/mL (≈ 1270 µM). It also gave a solubility at 24 h ([2]; pH 6.57, thermodynamic from solid, Water, Equilibrium-24 hours) of 193 µg/mL (≈ 443 µM), a pH ([2]; FaSSGF, Equilibrium-24 hours) of 1.67 and a pH ([2]; FaSSIF, Equilibrium-24 hours) of 6.44. The pH ([2]; Water, Equilibrium-24 hours) was 6.57, the XRPD after slurry ([2]; FaSSGF, Equilibrium-24 hours) was “Form-A” and the XRPD after slurry ([2]; FaSSIF, Equilibrium-24 hours) was “Form-A”. For the same molecule, the XRPD after slurry ([2]; Water, Equilibrium-24 hours) was “Dihydrate”, the solubility at 1 h ([2]; thermodynamic from solid, FaSSIF, Kinetic-1 hour) was 490 µg/mL (≈ 1120 µM) and the solubility at 1 h ([2]; thermodynamic from solid, Water, Kinetic-1 hour) was 25.9 µg/mL (≈ 59.5 µM).

For `CC(C)c1cc(Oc2c(Cl)cc(-n3nc(C#N)c(=O)[n-]c3=O)cc2Cl)n[nH]c1=O.[K+]` [K], the “Solubility” value ([1]; FaSSGF) was 1.2 µg/mL, the “Solubility” value ([1]; FaSSIF) was 2720 µg/mL and the “Solubility” value ([1]; Water) was > 21300 µg/mL. For the same molecule, the “Solubility” value [1, 6] was 210 µg/mL, the Resulting form ([1]; after solubility test in Water) was “Clear solution” and the Resulting form [1, 7] was “Dihydrate”.

With `CC(C)c1cc(Oc2c(Cl)cc(-n3nc(C#N)c(=O)[n-]c3=O)cc2Cl)n[nH]c1=O.CC(C)c1cc(Oc2c(Cl)cc(-n3nc(C#N)c(=O)[n-]c3=O)cc2Cl)n[nH]c1=O.[Ca+2]` [Hemi Ca] the “physical form stability compared with starting solids” value [5] was “changes were observed”, the “Solubility” value ([1]; FaSSGF) was 2.5 µg/mL and the “Solubility” value ([1]; FaSSIF) was 800 µg/mL. The “Solubility” value ([1]; Water) was 320 µg/mL, the Resulting form ([1]; after solubility test in Water) was “Dihydrate” and the Resulting form [1, 7] was “Dihydrate”.

In the case of `CC(C)c1cc(Oc2c(Cl)cc(-n3nc(C#N)c(=O)[n-]c3=O)cc2Cl)n[nH]c1=O.[Na+]` [Na], the “Solubility” value ([1]; FaSSGF) is reported as 0.8 µg/mL, the “Solubility” value ([1]; FaSSIF) is reported as 2500 µg/mL and the “Solubility” value ([1]; Water) is reported as > 25000 µg/mL. For the same molecule, the “Solubility” value [1, 6] was 250 µg/mL, the Resulting form ([1]; after solubility test in Water) was “Clear solution” and the Resulting form [1, 7] was “Dihydrate”.

For `CC(C)c1cc(Oc2c(Cl)cc(-n3nc(C#N)c(=O)[nH]c3=O)cc2Cl)n[nH]c1=O` [Free form Anhydrous], the “Solubility” value ([1]; FaSSGF) was 100 µg/mL, the “Solubility” value ([1]; FaSSIF) was 4500 µg/mL and the “Solubility” value ([1]; Water) was 200 µg/mL.
